Results published in PMC6811774, “Potent, selective, and subunit‐dependent activation of TRPC5 channels by a xanthine derivative” (British Journal of Pharmacology, 2019).

Key:
TRPC4:C1 channels = TRPC4:C1 channels (Homo sapiens, UniProt P48995+Q9UBN4); test: [Ca2+]i measurement in (Tet+) HEK T-REx cells expressing hTRPC4-C1 concatemer; assay type: cell-based
Description: HEK T‐REx™ cell line was transfected with TRPC5‐SYFP2 or TRPC4‐SYFP2 using FuGENE® HD transfection reagent. After 48 hr, cells were put under antibiotic selection using 400 μg·ml^−1 zeocin and 10 μg·ml^−1 blasticidin S (Invivogen, San Diego, California, USA). Medium changes were carried out regularly to remove dead cells. HEK T‐REx cells expressing tetracycline‐inducible human TRPC5, TRPC4–C1, and TRPC5–C1 were created as described previously (Akbulut et al., 2015; Ludlow et al., 2017; Rubaiy, Ludlow, Henrot, et al., 2017). TRPC5–C1 and TRPC4–C1 concatemers allow expression of functional channels with defined 2:2 stoichiometry that display ion permeability and current–voltage relationships distinct from those of homomeric TRPC4:C4 or TRPC5:C5 channels and consistent with those obtained upon co‐expression of TRPC1 with TRPC4 or TRPC5 (Ludlow et al., 2017; Rubaiy, Ludlow, Bon, & Beech, 2017; Rubaiy, Ludlow, Henrot, et al., 2017). Cells were cultured in DMEM‐F12 GlutaMAX (Invitrogen, Paisley, UK) containing 10% FBS (Sigma‐Aldrich, Gillingham, UK), with the addition of blasticidin (10 μg·ml^−1) and zeocin (400 μg·ml^−1) to maintain the stable incorporation of the tetracycline repressor and the channel of interest, respectively. Expression of proteins was induced by the addition of tetracycline (1 μg·ml^−1, 24 hr). Cells were maintained in a humidified incubator with 5% CO2 at 37°C. HEK 293 cells stably expressing tetracycline‐regulated human http://www.guidetopharmacology.org/GRAC/ObjectDisplayForward?objectId=494 were prepared similarly and have also been described previously (McHugh, Flemming, Xu, Perraud, & Beech, 2003). For experiments using transient co‐expression of TRPC1 and TRPC5, HEK cells at 40–60% confluency were transfected with pIRES2‐AcGFP1 and pIRES2‐DsRed‐Express2 plasmids containing human TRPC1 and TRPC5, respectively, using Lipofectamine 3000 (ThermoFisher Scientific, Yokohama, Japan). All experiments using transient expression were performed within 48 hr after transfection. […]

TRPC1:C5 channels = target: T1, TRPC1:C5 channels (Homo sapiens, UniProt P48995+Q9UL62); test: Excised outside-out patch-clamp, HEK 293 cells transiently co-expressing hTRPC1 and hTRPC5; assay type: cell-based
T1 construct: expressed in transfected cells; host or cells: HEK 293 (transient, Lipofectamine 3000)
Description: HEK T‐REx™ cell line was transfected with TRPC5‐SYFP2 or TRPC4‐SYFP2 using FuGENE® HD transfection reagent. After 48 hr, cells were put under antibiotic selection using 400 μg·ml^−1 zeocin and 10 μg·ml^−1 blasticidin S (Invivogen, San Diego, California, USA). Medium changes were carried out regularly to remove dead cells. HEK T‐REx cells expressing tetracycline‐inducible human TRPC5, TRPC4–C1, and TRPC5–C1 were created as described previously (Akbulut et al., 2015; Ludlow et al., 2017; Rubaiy, Ludlow, Henrot, et al., 2017). […]
For electrophysiology experiments, cells were plated at a low density of 20–30% onto round or square glass coverslips (13 mm diameter or 5 × 5 mm), and TRPC expression in HEK T‐REx was induced with 1 μg·ml^−1 tetracycline 24 hr before experimentation. […] The patch‐clamp currents were recorded using Axopatch 200B or HEKA EPC‐800 amplifiers, digitized by a Digidata 1440 or PCI6229 (National Instruments Japan, Tokyo, Japan) and recorded to a computer using pCLAMP10 (Molecular Devices) or WinWCPV4.5 (developed by Dr John Dempster, University of Strathclyde, UK). […]

Chain of TRPC4:C1 channels (Q9UBN4 whole entry): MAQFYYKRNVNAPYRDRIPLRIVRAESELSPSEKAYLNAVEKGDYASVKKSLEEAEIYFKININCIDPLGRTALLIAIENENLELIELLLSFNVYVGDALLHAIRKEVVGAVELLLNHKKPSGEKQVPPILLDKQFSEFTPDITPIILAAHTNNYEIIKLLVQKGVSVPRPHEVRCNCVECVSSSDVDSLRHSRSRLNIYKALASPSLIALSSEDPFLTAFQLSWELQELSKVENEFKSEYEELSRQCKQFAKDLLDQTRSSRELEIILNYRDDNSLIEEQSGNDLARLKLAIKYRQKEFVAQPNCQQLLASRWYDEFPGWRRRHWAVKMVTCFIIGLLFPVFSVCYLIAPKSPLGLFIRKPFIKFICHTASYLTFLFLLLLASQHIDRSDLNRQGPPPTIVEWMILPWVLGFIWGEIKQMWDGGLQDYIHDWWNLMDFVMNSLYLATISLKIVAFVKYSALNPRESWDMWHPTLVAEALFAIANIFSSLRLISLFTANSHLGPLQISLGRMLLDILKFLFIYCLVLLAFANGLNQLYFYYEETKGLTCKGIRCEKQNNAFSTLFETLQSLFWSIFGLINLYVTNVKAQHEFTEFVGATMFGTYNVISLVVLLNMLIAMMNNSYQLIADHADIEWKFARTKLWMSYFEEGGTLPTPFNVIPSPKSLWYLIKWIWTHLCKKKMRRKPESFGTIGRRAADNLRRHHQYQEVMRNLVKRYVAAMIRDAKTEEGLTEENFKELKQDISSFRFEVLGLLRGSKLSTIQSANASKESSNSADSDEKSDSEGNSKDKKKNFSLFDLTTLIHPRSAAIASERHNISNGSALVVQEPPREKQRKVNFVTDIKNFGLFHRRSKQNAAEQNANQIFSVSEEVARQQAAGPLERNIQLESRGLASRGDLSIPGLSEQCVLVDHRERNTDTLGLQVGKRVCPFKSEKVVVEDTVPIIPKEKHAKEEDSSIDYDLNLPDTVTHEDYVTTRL
Chain of TRPC4:C1 channels (P48995 whole entry): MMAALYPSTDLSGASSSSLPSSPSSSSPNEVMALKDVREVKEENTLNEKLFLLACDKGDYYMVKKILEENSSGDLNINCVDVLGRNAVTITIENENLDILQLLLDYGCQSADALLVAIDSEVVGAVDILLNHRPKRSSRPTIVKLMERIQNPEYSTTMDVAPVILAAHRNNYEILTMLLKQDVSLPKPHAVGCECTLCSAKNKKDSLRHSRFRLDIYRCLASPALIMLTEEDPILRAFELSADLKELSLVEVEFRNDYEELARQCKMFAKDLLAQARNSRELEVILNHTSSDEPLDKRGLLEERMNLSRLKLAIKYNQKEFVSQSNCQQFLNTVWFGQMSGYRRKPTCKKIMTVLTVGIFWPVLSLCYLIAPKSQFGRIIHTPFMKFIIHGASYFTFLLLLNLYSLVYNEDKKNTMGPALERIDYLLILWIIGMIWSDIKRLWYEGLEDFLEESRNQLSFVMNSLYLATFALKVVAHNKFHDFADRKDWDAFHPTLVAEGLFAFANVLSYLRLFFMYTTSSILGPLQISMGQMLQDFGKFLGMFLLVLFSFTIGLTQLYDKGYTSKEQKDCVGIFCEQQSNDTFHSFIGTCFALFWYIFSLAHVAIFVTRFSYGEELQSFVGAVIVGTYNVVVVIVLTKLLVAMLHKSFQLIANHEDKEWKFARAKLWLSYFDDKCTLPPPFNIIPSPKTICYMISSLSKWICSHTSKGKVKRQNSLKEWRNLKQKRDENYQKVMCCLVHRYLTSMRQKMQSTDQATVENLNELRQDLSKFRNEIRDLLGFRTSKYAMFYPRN
T1 sequence (Q9UL62 whole entry): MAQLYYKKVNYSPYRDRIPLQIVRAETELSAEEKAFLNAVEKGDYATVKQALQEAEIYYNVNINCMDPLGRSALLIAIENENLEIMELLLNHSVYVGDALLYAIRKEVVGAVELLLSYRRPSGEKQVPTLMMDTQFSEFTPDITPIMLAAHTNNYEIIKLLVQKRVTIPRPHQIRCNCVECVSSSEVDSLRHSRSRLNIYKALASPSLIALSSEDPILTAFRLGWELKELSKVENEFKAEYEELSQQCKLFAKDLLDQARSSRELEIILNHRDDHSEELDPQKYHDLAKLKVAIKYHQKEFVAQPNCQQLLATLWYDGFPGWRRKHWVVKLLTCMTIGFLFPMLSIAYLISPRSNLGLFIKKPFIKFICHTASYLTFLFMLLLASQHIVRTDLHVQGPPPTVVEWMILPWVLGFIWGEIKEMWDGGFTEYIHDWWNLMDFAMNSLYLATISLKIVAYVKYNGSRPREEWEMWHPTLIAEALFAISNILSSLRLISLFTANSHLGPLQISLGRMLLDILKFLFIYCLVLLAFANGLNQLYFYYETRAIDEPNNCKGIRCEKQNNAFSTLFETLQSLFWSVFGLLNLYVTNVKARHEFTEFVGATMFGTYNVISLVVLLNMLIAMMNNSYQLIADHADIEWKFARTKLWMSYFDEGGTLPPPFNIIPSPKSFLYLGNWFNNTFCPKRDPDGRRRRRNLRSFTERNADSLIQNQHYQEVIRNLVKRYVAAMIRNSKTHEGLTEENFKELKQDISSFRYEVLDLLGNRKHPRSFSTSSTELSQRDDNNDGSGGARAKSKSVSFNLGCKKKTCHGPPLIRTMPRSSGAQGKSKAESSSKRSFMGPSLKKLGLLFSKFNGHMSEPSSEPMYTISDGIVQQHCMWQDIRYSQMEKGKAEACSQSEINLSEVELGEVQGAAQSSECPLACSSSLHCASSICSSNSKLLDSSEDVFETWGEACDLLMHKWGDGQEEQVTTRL
T1 sequence (P48995 whole entry): as the sequence (P48995 whole entry) above

## Cn1c(=O)n(CCCO)c(=O)c2c1nc(Oc1ccc(Cl)c(OC(F)(F)F)c1)n2Cc1ccc(Cl)cc1 [AM237]
TRPC4:C1 channels
  Hill slope, inhibition of EA response: –1.3
TRPC4:C1 channels; 0.03–30 nM AM237
  Effect of pretreatment on basal [Ca2+]i: did not affect
TRPC4:C1 channels; 3-300 nM AM237
  Activation upon acute administration ([Ca2+]i): lack of activation
TRPC1:C5 channels; 30 nM EA, at 3 to 100 nM AM237
  Inhibition of inward and outward currents induced by EA: full inhibition
TRPC1:C5 channels; outside-out patch
  Activation of TRPC1:C5 currents: did not activate
